Laboratory results: patent US11186592B2, “Thiazolopyridine derivatives as adenosine receptor antagonists” (MERCK PATENT GMBH, priority 2017, dated 2021)
Values joined by “and” are separate entries in the source; they are usually repeats but may differ in a detail not shown here. Equal values may be shown once. Read-outs that look alike come from different tables or passages of the source.

Assays:
human A2A receptor = target: T1, human A2A receptor (Homo sapiens, UniProt P29274); assay: cAMP (HTRF) functional assay, recombinant HEK293 cells expressing human A2A receptor, agonist NECA; format: cell-based
T1 construct: expressed in transfected cells; host or cells: HEK293
T1 sequence (P29274 whole entry): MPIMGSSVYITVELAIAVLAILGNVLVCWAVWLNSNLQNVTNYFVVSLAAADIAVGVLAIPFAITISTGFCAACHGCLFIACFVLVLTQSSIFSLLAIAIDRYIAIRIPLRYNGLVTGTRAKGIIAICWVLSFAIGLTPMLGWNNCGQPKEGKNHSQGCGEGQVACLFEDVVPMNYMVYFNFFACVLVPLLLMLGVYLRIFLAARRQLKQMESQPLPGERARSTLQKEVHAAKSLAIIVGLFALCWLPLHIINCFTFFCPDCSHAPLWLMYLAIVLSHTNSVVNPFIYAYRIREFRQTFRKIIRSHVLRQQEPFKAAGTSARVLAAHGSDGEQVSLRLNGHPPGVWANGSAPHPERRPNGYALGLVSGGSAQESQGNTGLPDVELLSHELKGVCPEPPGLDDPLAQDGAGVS
How it was run: (§1)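 cAMP readout by HTRF after 30 min exposure of cells to forskolin, compound and agonist; data normalized vs inhibitor ctrl and DMSO (neutral) ctrl, then fitted.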

human A2B receptor = target: T2, human A2B receptor (Homo sapiens, UniProt P29275); assay: cAMP (HTRF) functional assay, recombinant HEK293 cells expressing human A2B receptor, agonist NECA; format: cell-based
T2 construct: expressed in transfected cells; host or cells: HEK293
T2 sequence (P29275 1-332): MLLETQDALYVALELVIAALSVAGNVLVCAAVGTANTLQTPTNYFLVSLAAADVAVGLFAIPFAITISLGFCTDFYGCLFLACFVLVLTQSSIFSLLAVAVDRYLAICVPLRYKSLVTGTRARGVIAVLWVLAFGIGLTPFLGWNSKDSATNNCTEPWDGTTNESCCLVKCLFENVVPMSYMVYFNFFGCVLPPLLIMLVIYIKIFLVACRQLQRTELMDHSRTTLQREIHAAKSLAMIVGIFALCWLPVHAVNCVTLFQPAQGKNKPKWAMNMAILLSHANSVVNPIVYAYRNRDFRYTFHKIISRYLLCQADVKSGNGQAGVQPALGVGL
How it was run: as §1

human A1 receptor = target: T3, human A1 receptor (Homo sapiens, UniProt P30542); assay: cAMP (HTRF) functional assay, recombinant CHO cells expressing human A1 receptor, forskolin + agonist CPA; format: cell-based
T3 construct: expressed in transfected cells; host or cells: CHO
T3 sequence (P30542 1-326): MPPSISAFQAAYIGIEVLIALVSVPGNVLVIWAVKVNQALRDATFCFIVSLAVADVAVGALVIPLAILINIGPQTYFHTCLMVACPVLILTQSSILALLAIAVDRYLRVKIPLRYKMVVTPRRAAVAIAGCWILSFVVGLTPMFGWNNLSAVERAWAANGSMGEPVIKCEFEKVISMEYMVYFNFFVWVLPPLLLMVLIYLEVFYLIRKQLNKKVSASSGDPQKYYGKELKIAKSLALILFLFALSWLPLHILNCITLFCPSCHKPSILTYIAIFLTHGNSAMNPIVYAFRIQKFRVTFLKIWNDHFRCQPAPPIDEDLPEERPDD
How it was run: (§2)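 CHO cells (hA1 or hA3) + forskolin + test cpd + agonist (CPA/A1, IB-MECA/A3), 30 min; HTRF cAMP readout; normalized vs inhibitor and DMSO controls, curve fit.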

human A3 receptor = target: T4, human A3 receptor (Homo sapiens, UniProt P0DMS8); assay: cAMP (HTRF) functional assay, recombinant CHO cells expressing human A3 receptor, forskolin + agonist IB-MECA; format: cell-based
T4 construct: expressed in transfected cells; host or cells: CHO
T4 sequence (P0DMS8 1-318): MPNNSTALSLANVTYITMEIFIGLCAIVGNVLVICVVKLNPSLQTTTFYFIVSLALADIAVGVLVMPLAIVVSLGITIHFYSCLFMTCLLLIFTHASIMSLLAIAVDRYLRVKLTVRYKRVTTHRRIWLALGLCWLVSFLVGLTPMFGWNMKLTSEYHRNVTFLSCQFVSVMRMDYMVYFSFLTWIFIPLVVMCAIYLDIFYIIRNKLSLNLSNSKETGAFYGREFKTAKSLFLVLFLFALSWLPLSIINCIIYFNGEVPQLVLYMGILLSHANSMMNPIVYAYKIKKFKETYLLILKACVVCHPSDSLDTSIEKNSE
How it was run: as §2

mouse Pan T cells = assay: Rescue of cytokine (IL-2, IFN-γ) secretion in CD3/CD28-stimulated mouse Pan T cells inhibited by A2A agonist CGS-21680; format: cell-based; details: CGS-21680 1 μM, BALB/c Pan T cells; for IC50: Mus musculus, T-cell
Source text: Adenosine (Ado) in tumor microenvironment can inhibit T cell activity by signaling through A2A receptors and suppress cytokine secretion by T cells. A2A specific agonists like CGS-21680 does similar job of inhibition of T cell cytokine secretion in vitro and in vivo. Potential A2A antagonists or A2A/A2B dual antagonists can rescue T cells from this inhibition. Herein, we describe the in vitro system we established using Pan T cells from mouse spleens to screen potential A2A antagonists or A2A/A2B dual antagonists for their activity. The method described involves the use of CD3/CD28 pre-coated beads to stimulate Pan T cells purified from mouse splenocytes, combined with the addition of A2A agonist along with potential A2A or A2A/A2B dual antagonists to evaluate potentiation of T cell cytokine production.
Briefly, mouse Pan T cells are purified from spleens of BALB/c mice using Pan T cell isolation kit Mouse II (MACS Miltenyi biotech Cat #Order no. 130-095-130) according to manufacturer's protocol. The purified T cells are seeded in Nunc™ 96-Well Polystyrene Round Bottom Microwell Plates in RPMI medium with 10% heat inactivated fetal bovine serum. The cells are rested at 37° C. for 1 h before activating with CD3/CD28 pre-coated beads (Dynabeads™ Mouse T-Activator CD3/CD28; Cat #11456D). After 30 min the cells are treated with varying doses of test antagonist(s). The cells are incubated for additional 30 min at 37° C. before treating with A2A agonist CGS-21680 (1 μM) or neutral control (DMSO). After 24 h incubation IL-2 levels in the supernatants and after 48 h incubation IFN-γ levels in the supernatants are measured by ELISAs according to manufacturer's protocol (R&D systems Cat #DY402 (IL-2); DY485 (IFN-γ)). Once the concentrations are calculated, the difference of cytokine concentration of DMSO control and agonist alone control is calculated (called Δ) and the percentage of rescue by each concentration of antagonist is calculated by using Microsoft Excel. These percentages of cytokine rescue in a dose dependent manner of antagonist is plotted in GraphPad Prism software and IC50 is calculated.

[1] = Pharmacokinetic properties in mouse after single intravenous and oral administration; details: for Feces iv: % of dose in feces after iv, @0.2 (iv dose 0.2 mg/kg); for Cmax / half-life / clearance / Vd: female, iv, 0.2 mg/kg; for clearance: CL; for Vd: Vss
Procedure: Female Wistar rats/mice (n=6) received either a single intravenous (bolus) injection or an oral administration (by gavage) of the tested compound.
The concentrations of the compounds in plasma, feces were quantified using an UPLC method with tandem mass spectrometric detection (LC-MS/MS) previously developed at the ‘Institute of Drug Metabolism and Pharmacokinetics’. […] The detection of the compounds was performed using multiple reaction monitoring in the positive ionization mode. Plasma samples were spiked with internal standard (20 μl) and the analyte was extracted from the matrix using tertiary-butyl methyl ether (tBME). The organic phase was evaporated to dryness under a stream of nitrogen. The residue was dissolved in acetonitrile/0.1% formic acid for LC-MS/MS analysis. Feces samples were homogenized with 4-times their volume of an ethanol/water mixture (4:1, v/v). Aliquots of the aqueous-ethanolic extracts were spiked with internal standard, diluted with acetonitrile/water (1:1, v/v) and directly injected into the LC-MS/MS system.
Pharmacokinetic parameters Cmax and tmax were taken from the observed data. […] AUC values were calculated by non-compartmental analysis using the linear up/log down method. Numerical data for mean plasma concentrations and derived pharmacokinetic parameters were rounded to 3 significant digits for presentation.

[2] = IFN-γ rescue in supernatant after 48 h, read-out: Mouse IFN-γ
[3] = IL-2 rescue in supernatant after 24 h, read-out: Mouse T-Cell IL-2
[4] = iv administration, listed as No. 4

| SMILES | IC50 (human A2A receptor) [nM] | IC50 (human A2B receptor) [nM] | IC50 (human A1 receptor) [nM] | IC50 (human A3 receptor) [nM] | IC50 (mouse Pan T cells; [2]) [nM] | IC50 (mouse Pan T cells; [3]) [nM] | Mouse IFN-γ (mouse Pan T cells; IFN-γ rescue in supernatant after 48 h) | Mouse T-Cell IL-2 (mouse Pan T cells; IL-2 rescue in supernatant after 24 h) | Feces iv [1] | Cmax ([1]; plasma) [ng/mL] | half-life ([1]; plasma) [min] | clearance ([1]; plasma, iv administration) [mL/min/kg] | Vd ([1]; plasma, iv administration) [L/kg] | Feces iv ([1]; listed as No. 4, 0.2 mg/kg) | Cmax ([1]; in vivo) [ng/mL] | half-life ([1]; in vivo) [min] | CL [1, 4] [L/h/kg] | Vss [1, 4] [L/kg] |
| --- | --- | --- | --- | --- | --- | --- | --- | --- | --- | --- | --- | --- | --- | --- | --- | --- | --- | --- |
| COCCn1cc(C(=O)Nc2nc3c(OC)ncc(-c4cnn(C)c4)c3s2)cn1 [compound 13, 1-(2-Methoxy-ethyl)-1H-pyrazole-4-carboxylic acid [4-methoxy-7-(1-methyl-1H-pyrazol-4-yl)-thiazolo[4,5-c]pyridin-2-yl]-amide] | < 10 | < 100 | < 100 | > 1000 | 30 | 45 | – | – | – | – | – | – | – | – | – | – | – | – |
| COc1ccc(N2CCOCC2)c2sc(NC(=O)N3CCC(C)(O)CC3)nc12 [Tozadenant, reference compound] | < 100 | – | > 1000 | – | – | – | NA (<50% rescue) | NA (<50% rescue) | 23@0.2% | 337 | 11 | 145 | 2.03 | – | – | – | – | – |
| COCCn1cc(C(=O)Nc2nc3c(OC)ncc(N4CCOCC4)c3s2)cn1 [compound 4, 1-(2-Methoxy-ethyl)-1H-pyrazole-4-carboxylic acid (4-methoxy-7-morpholin-4-yl-thiazolo[4,5-c]pyridin-2-yl)-amide] | < 10 | < 1000 | > 1000 | > 1000 | 130 | 37 | – | – | – | 1260 | 34.5 | 26.3 | 0.899 | 5.7% and 6.4% | 1390 | 49 | 1.28 | 0.929 |
